Data on 2 molecules can be found in ChEMBL document CHEMBL1146640, “A new 2-carbamoyl pteridine that inhibits mycobacterial FtsZ” (2004).

Molecules are shown by their SMILES. Values after ≈ are worked out from the molar mass of the structure shown.

Assay [1] addresses Tubulin alpha chain (Sus scrofa) (UniProt P02550). Description: Percentage inhibition against human tubulin polymerization. Type of assay: functional. The following applies: concentration not given here.
The test system of assay [2] is Mycobacterium tuberculosis. Nature of the assay: Inhibitory dose required against Mycobacterium tuberculosis FtsZ polymerization. Type of assay: functional. The note with it: read-out: ID50 (the source's name).
For assay [3], the system named is Mycobacterium tuberculosis. Nature of the assay: Compound was tested for inhibition of GTP hydrolysis at a concentration of 100 uM in Mycobacterium tuberculosis (Mtb). Type of assay: functional.
Assay [4] relates to Mycobacterium tuberculosis. Description: In vitro minimum inhibitory concentration (MIC) towardsMtb H37Ra was determined using a colorimetric (Alamar blue) microdilution broth assay. Type of assay: functional. (The colour change of resazurin is a common sign of viable cells or microbes.)
Assay [5] deals with Tubulin alpha chain (Homo sapiens). Description: Percentage inhibition against human tubulin polymerization.

Chain of Tubulin alpha chain (Sus scrofa) (P02550 whole entry, looked up): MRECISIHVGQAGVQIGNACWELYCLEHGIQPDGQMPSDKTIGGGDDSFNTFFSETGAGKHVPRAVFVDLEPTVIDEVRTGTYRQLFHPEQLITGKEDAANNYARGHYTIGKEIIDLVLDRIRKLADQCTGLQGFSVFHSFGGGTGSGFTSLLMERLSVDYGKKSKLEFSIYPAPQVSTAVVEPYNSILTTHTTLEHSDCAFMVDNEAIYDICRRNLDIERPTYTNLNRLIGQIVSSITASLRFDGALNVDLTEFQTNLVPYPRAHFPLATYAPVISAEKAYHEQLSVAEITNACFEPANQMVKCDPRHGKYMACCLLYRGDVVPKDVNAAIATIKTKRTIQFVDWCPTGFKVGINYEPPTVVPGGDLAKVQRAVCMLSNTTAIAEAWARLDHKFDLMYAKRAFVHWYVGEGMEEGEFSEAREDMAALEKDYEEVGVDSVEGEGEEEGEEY

As to `CCOC(=O)Nc1nc(NC(C)CCCN(CC)CC)c2nc(-c3ccccc3)c(-c3ccccc3)nc2n1` (stereo not drawn), the inhibition in assay [1] was 24%. Besides, the IC50 in assay [2] was 38.1 µM. This molecule returned a Hydrolysis in assay [3] of 23%. The molecule also returned an MIC in assay [4] of 2 µg/mL (≈ 3.79 µM).

`CCOC(=O)Nc1cc(NC(C)CCCN(CC)CC)c2nc(-c3ccccc3)c(-c3ccccc3)nc2n1` (stereo not drawn): the inhibition entry in assay [5] was “No inhibition”. The IC50 in assay [2] stood at 34.2 µM. The molecule also had a Hydrolysis in assay [3] of 35%. Besides, the MIC in assay [4] is > 0.25 µg/mL.

In general, inhibition refers to how much of the control response was suppressed. One may read the MIC as the smallest concentration in the dilution series that meets the test's criterion for growth inhibition.
